“Also recorded” adds a separate entry of the source.
What was measured:
[1] = test system: dengue virus NS5 methyltransferase (MTase); set-up: method as in Loeanurit et al., under review; conditions: targeting the SAM binding site; ref Loeanurit et al., under review; cited from earlier work
[2] = Pharmacokinetic study in mice
[3] = Pharmacokinetic study in rats
C57BL/6 mice [4] = experiment: Multiple-dose toxicity in mice
CHIKV [5] = experiment: CHIKV plaque assay in Vero cells; conditions: Chikungunya virus, read-out: EC50, CHIKV inhibition
CHIKV nsP1 = CHIKV nsP1 (Chikungunya virus, UniProt Q8JUX6); experiment: MTase-Glo methyltransferase assay; conditions: At 50 µM (method: 100 µM), purified CHIKV nsP1
CHIKV nsP1, sequence (Q8JUX6 1-535): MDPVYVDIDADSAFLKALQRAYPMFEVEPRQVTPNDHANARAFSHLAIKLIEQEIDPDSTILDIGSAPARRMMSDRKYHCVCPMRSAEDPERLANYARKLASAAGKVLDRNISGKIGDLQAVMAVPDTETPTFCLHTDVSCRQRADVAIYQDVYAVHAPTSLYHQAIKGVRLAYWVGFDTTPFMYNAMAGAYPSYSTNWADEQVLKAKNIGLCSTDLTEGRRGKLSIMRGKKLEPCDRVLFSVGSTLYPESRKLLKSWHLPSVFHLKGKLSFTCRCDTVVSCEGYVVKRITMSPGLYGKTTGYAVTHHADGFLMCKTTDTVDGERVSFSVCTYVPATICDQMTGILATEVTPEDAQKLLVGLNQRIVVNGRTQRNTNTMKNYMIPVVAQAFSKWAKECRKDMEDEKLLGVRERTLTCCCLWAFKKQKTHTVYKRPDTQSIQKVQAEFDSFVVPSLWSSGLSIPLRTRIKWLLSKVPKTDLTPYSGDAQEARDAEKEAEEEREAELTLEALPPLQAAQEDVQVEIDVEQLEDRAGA

CHIKV [6] = experiment: CHIKV plaque assay in HEK 293 cells; conditions: Chikungunya virus, HEK293, read-out: EC50, CHIKV inhibition
C57BL/6 mice [7] = experiment: Single-dose acute oral toxicity in mice
CHIKV [8] = experiment: Cell-based anti-attachment assay in Vero cells; conditions: 10 µM
[9] = Cytotoxicity assay alongside the replicon assay; conditions: hamster
Sprague Dawley rats = experiment: ALT and Cr levels in rat plasma samples of the PK study; conditions: single oral 250 mg/kg, plasma at 24, 48, 72 h
CHIKV [10] = experiment: Time-of-addition and time-of-removal assay in Vero cells; conditions: 10 µM, MOI 1
CHIKV [11] = experiment: In vivo anti-CHIKV efficacy, CHIKV-induced arthritis mouse model
CHIKV replicon = CHIKV replicon inhibition assay (Renilla luciferase) in BHK-21 cells; conditions: Chikungunya virus, BHK-21, 24 h, read-out: EC50, CHIKV replicon inhibition (printed IC50 in Figure 2g,h and b75)
[12] = C57BL/6, mouse, in vivo, po, 250 mg/kg
[13] = mice, oral 250 mg/kg, mean ± SD
[14] = Sprague Dawley, rat, in vivo, po, 250 mg/kg
[15] = rat, oral 250 mg/kg, mean ± SD, 250 mg/kg
[16] = compound 3 250 mg/kg oral BID 3 days, ribavirin 50 mg/kg BID I.P.
[17] = single oral dose 250 or 500 mg/kg
[18] = compounds single oral 250 mg/kg, ribavirin 50 mg/kg BID IP

In the case of `O=c1oc2ccccc2c(O)c1C(c1cccc(Cl)c1)c1c(O)c2ccccc2oc1=O` [compound 3, 3,3′-((3-chlorophenyl)methylene)bis(4-hydroxy-2H-chromen-2-one)], the “Inhibition of dengue virus NS5 methyltransferase” value [1] is given as “inhibitors of the dengue virus NS5 methyltransferase (MTase)”, the AUC [2, 12] is given as 909 µg·h/mL and the AUC(0-inf) [2, 12] is given as 909 ± 835 µg·h/mL. For the same molecule, the AUC(0-t) [2, 12] was 909 ± 835 µg·h/mL, the CL/F [2, 12] was 18.3 mL/min/kg and the MRT inf [2, 12] was 10.6 ± 0.728 h. For the same molecule, the MRT last [2, 12] was 10.5 ± 0.646 h, the Tmax [2, 12] was 10 ± 3.46 h and the Cmax ([2]; C57BL/6, mouse, in vivo, po, 250 mg/kg, Cmax, mice, oral 250 mg/kg, mean ± SD) was 68.9 ± 64.1 µg/mL. The half-life ([2]; C57BL/6, mouse, in vivo, po, 250 mg/kg, HL (half-life), mice, oral 250 mg/kg, mean ± SD) was 4.16 h, the Cmax ([2]; C57BL/6, mouse, in vivo, po, 250 mg/kg, Peak plasma concentration (Cmax), mice, oral 250 mg/kg) was 68.9 µg/mL and the “Time within which plasma concentration fell below EC90 and EC50” value ([2]; mice, oral 250 mg/kg) was 24 to 48 h. The “AUC_% Extrap_obs” value [2, 13] was 0.124 ± 0.185%, the Vz_F_obs [2, 13] was 7.963 ± 11.841 L/kg and the “HL (half-life)” value ([2]; mice, oral 250 mg/kg, mean ± SD, 250 mg/kg) was 4.163 ± 0.941 h. For the same molecule, the AUC [3, 14] was 1090 µg·h/mL, the AUC(0-inf) [3, 14] was 1100 ± 633 µg·h/mL and the AUC(0-t) [3, 14] was 1090 ± 646 µg·h/mL. The CL/F [3, 14] was 5.65 mL/min/kg, the MRT inf [3, 14] was 14.5 ± 5.73 h and the MRT last [3, 14] was 12.9 ± 5.73 h. It also gave a Cmax ([3]; Sprague Dawley, rat, in vivo, po, 250 mg/kg, Cmax, oral 250 mg/kg, mean ± SD) of 80.7 ± 39.9 µg/mL, a half-life ([3]; Sprague Dawley, rat, in vivo, po, 250 mg/kg, HL (half-life), oral 250 mg/kg, mean ± SD) of 7.92 h and a Cmax ([3]; Sprague Dawley, rat, in vivo, po, 250 mg/kg, Peak plasma concentration (Cmax), rats, oral 250 mg/kg) of 80.7 µg/mL. The Tmax ([3]; Sprague Dawley, rat, in vivo, po, 250 mg/kg, Tmax, oral 250 mg/kg, mean ± SD) was 9.33 h, the “AUC_% Extrap_obs” value ([3]; rat, oral 250 mg/kg, mean ± SD) was 2.128 ± 3.659% and the Vz_F_obs ([3]; rat, oral 250 mg/kg, mean ± SD) was 5.672 ± 8.054 L/kg. For the same molecule, the “HL (half-life)” value [3, 15] was 7.922 ± 6.558 h, the Tmax [3, 15] was 9.333 ± 2.309 h and the “Time within which plasma concentration fell below EC90 and EC50” value ([3]; rats, oral 250 mg/kg) was 24 to 48 h. For the same molecule, the “Serum ALT by day 3 vs vehicle and ribavirin groups” value (C57BL/6 mice [4]; 250 mg/kg oral BID for 3 days) was “markedly elevated”, the “Activity scores / behaviour” value (C57BL/6 mice [4]; [16]) was “activity scores increased by day 2” and the Creatinine (C57BL/6 mice [4]; [16]) was “remained within normal limits”. For the same molecule, the “Histopathology of liver tissues” value (C57BL/6 mice [4]; [16]) was “hepatocellular vacuolization and mononuclear infiltration”, the “Histopathology of renal tissues” value (C57BL/6 mice [4]; [16]) was “proximal tubular edema and vacuolization” and the EC50 (CHIKV [5]) was 2.85 ± 0.42 µM. For the same molecule, the “nsP1 methyltransferase enzymatic activity vs DMSO control” value (CHIKV nsP1) was “significantly inhibited enzymatic activity”, the EC50 (CHIKV [6]) was 3.08 ± 0.45 µM and the “Serum ALT on day 1” value (C57BL/6 mice [7]; single oral dose 500 mg/kg, not statistically significant, resolved) was “slight increase”. For the same molecule, the Activity scores (C57BL/6 mice [7]; [17]) was “no significant difference in activity scores”, the Kidney histology (C57BL/6 mice [7]; [17]) was “remained within normal limits” and the “Liver (ALT) and kidney (creatinine) biomarkers” value (C57BL/6 mice [7]; single oral dose 250 or 500 mg/kg, days 1, 3, 7) was “remained within normal limits”. For the same molecule, the “Survival and clinical signs over 7 days” value (C57BL/6 mice [7]; single oral dose 250 or 500 mg/kg, mice) was “All animals survived”, the Liver histology (C57BL/6 mice [7]; single oral dose, day 1, also seen in vehicle-treated animals) was “Mild, transient hepatocellular vacuolization” and the “Tolerability of a single oral dose” value (C57BL/6 mice [7]; up to 500 mg/kg, mice) was “well tolerated”. The “CHIKV inhibition, post-incubation or throughout” value (CHIKV [8]; Vero, MOI 0.1, 24 hpi) was “robust antiviral activity was observed”, the “CHIKV inhibition, pre-treatment, pre-incubation or co-incubation” value (CHIKV [8]; Vero, MOI 0.1, 24 hpi) was “Neither compound exhibited significant inhibition” and the “Effect of compound pre-treatment on viral replication” value (CHIKV [8]; cells treated 1 h before virus) was “enhanced the viral replication”. For the same molecule, the CC50 [9] was 100.5 ± 0.11 µM, the “ALT and Cr levels” value (Sprague Dawley rats) was “within normal limits” and the “Time-of-addition time-points significantly different from DMSO control” value (CHIKV [10]) was 3–9 hpi. For the same molecule, the “Viral replication in time-of-removal (TOR) assay” value (CHIKV [10]) was “viral replication resumed upon compound removal at 12 hpi”, the “Viral titres in time-of-addition (TOA) assay” value (CHIKV [10]) was “significantly reduced viral titres when added up to 9 hpi; also recorded: persisted when added as late as 12 hours post-infection” and the Body weight (CHIKV [11]; CHIKV-infected mice, single oral 250 mg/kg) was “greater body weight loss than other groups”. For the same molecule, the “PMN infiltration in footpad (H&E), day 1” value (CHIKV [11]; [18]) was “reduced PMN infiltration on day 1”, the “PMN infiltration in footpad (H&E), days 2 and 3” value (CHIKV [11]; [18]) was “PMN infiltration persisting at moderate levels” and the “CHIKV titres in footpad tissues, plaque assay, day 2 post-infection” value (CHIKV [11]; single oral 250 mg/kg) was “significantly reduced CHIKV titres in footpad tissues”. The “Footpad swelling, tissue viral loads and systemic viremia (discussion summary)” value (CHIKV [11]; single oral 250 mg/kg) was “significantly reduced footpad swelling, viral loads in infected tissues, and systemic viremia”, the “Infectious viral titres in footpad tissue, plaque titration, day 3” value (CHIKV [11]; single oral 250 mg/kg) was “maintaining efficacy through day 3 howbeit not significantly” and the “Systemic viremia (plasma CHIKV titres, plaque assay)” value (CHIKV [11]; single oral 250 mg/kg) was “no marked reduction in systemic viremia”. The “Viral RNA levels in footpad tissue (RT-qPCR)” value (CHIKV [11]; single oral 250 mg/kg) was “marked reduction by day 3”, the “Foot swelling and activity vs vehicle group” value (CHIKV [11]; single oral 250 mg/kg at 24 h after infection, transient, not significantly different from vehicle) was “moderate improvement in foot swelling and activity” and the EC50 (CHIKV replicon) was 6.64 ± 0.86 µM.

Reference: publication PMC12305873, “Chlorinated biscoumarins inhibit chikungunya virus replication in cell-based and animal models” (Emerging Microbes & Infections, 2025)
